Test results as given in US20090143279A1 (priority 2007, published 2009).
Read-outs that look alike come from different tables or passages of the source.

Experiments:
OXPHOS gene expression = type: cell-based, mouse; details: Conc 20 μM; for GE-HTS (composite Z-score): normalized score vs mock-treated (DMSO) wells
cytochrome c = type: cell-based, mouse; details: Conc 20 μM; for cyt c (composite Z-score): normalized score vs mock-treated (DMSO) wells
[1] = test system: cellular dehydrogenase activity; details: Conc 20 μM; for MTT (composite Z-score): normalized score vs mock-treated (DMSO) wells
reactive oxygen species = type: cell-based, mouse; details: Conc 20 μM; for ROS (composite Z-score): normalized score vs mock-treated (DMSO) wells
C2C12 myotubes = details: Conc 20 μM; for Viability (composite Z-score): normalized score vs mock-treated (DMSO) wells
[2] = test system: mitochondrial membrane potential; type: cell-based, mouse; details: Conc 20 μM; for ΔΨm (composite Z-score): normalized score vs mock-treated (DMSO) wells
nuOXPHOS transcripts = type: cell-based, mouse; details: Conc 20 μM; for nucOX (composite Z-score): normalized score vs mock-treated (DMSO) wells
mtOXPHOS transcripts = type: cell-based, mouse; details: Conc 20 μM; for mitoOX (composite Z-score): normalized score vs mock-treated (DMSO) wells
[3] = normalized composite Z-score vs mock-treated (DMSO) wells
[4] = composite Z-score vs DMSO wells
[5] = composite Z-score vs mock-treated (DMSO) wells

## CC1(C)C(=O)CC[C@@]2(C)C1C[C@@H](O)[C@@]1(C)C3=CC(=O)O[C@@H](c4ccoc4)[C@]3(C)CCC21 (stereo partly drawn) [dihydro-7-desacetyldeoxygedunin]
OXPHOS gene expression; [3]
  GE-HTS: −0.961
Cytochrome c; [3]
  cyt c: 0.599
[1]; [3]
  MTT: −1.403
Reactive oxygen species; [3]
  ROS: 0.608
C2C12 myotubes; [3]
  Viability: −0.527
[2]; [3]
  ΔΨm: −0.170
nuOXPHOS transcripts; [3]
  nucOX: −0.719
mtOXPHOS transcripts; [3]
  mitoOX: −1.218

## CC(C)C1COc2cc3oc(=O)ccc3cc2O1 (stereo not drawn) [dihydro-obliquin]
OXPHOS gene expression; [3]
  GE-HTS: 0.233
Cytochrome c; [3]
  cyt c: −0.662
[1]; [3]
  MTT: −0.661
Reactive oxygen species; [3]
  ROS: 1.045
C2C12 myotubes; [3]
  Viability: −0.141
[2]; [3]
  ΔΨm: −0.159
nuOXPHOS transcripts; [3]
  nucOX: 0.192
mtOXPHOS transcripts; [3]
  mitoOX: 0.303

## C=C1CCC(=O)C(C)CCC2C1CC2(C)C (stereo not drawn) [dihydrocaryophyllen-5-one]
OXPHOS gene expression; [3]
  GE-HTS: −0.496
Cytochrome c; [3]
  cyt c: 0.620
[1]; [3]
  MTT: −1.453
Reactive oxygen species; [3]
  ROS: 0.483
C2C12 myotubes; [3]
  Viability: 0.219
[2]; [3]
  ΔΨm: 0.090
nuOXPHOS transcripts; [3]
  nucOX: −0.513
mtOXPHOS transcripts; [3]
  mitoOX: −0.317

## CC(=O)Oc1cc2c(c(C)c1OC(C)=O)CC=C1[C@@]2(C)CC[C@@]2(C)C3C[C@](C)(C(=O)O)CC[C@]3(C)CC[C@]12C (stereo partly drawn) [dihydrocelastryl diacetate]
OXPHOS gene expression
  GE-HTS (composite Z-score): −1.199
Cytochrome c
  cyt c (composite Z-score): −5.617
[1]
  MTT (composite Z-score): −4.098
Reactive oxygen species
  ROS (composite Z-score): −3.182
C2C12 myotubes
  Viability (composite Z-score): −4.472
[2]
  ΔΨm (composite Z-score): −3.309
nuOXPHOS transcripts
  nucOX (composite Z-score): 0.241
mtOXPHOS transcripts
  mitoOX (composite Z-score): −3.815

## CC(=O)O[C@@H]1CC2C(C)(C)C(=O)CC[C@]2(C)C2CC[C@]3(C)C(=CC(=O)O[C@H]3c3ccoc3)[C@@]21C (stereo partly drawn) [dihydrodeoxygedunin]
OXPHOS gene expression; [3]
  GE-HTS: −1.009
Cytochrome c; [3]
  cyt c: 0.751
[1]; [3]
  MTT: −0.637
Reactive oxygen species; [3]
  ROS: 1.030
C2C12 myotubes; [3]
  Viability: −0.004
[2]; [3]
  ΔΨm: 0.443
nuOXPHOS transcripts; [3]
  nucOX: −1.073
mtOXPHOS transcripts; [3]
  mitoOX: −0.631

## CN1C[C@H](C(=O)N[C@]2(C)O[C@@]3(O)[C@@H]4CCCN4C(=O)[C@H](Cc4ccccc4)N3C2=O)C[C@@H]2c3cccc4[nH]cc(c34)C[C@H]21 [dihydroergotamine]
OXPHOS gene expression; [4]
  GE-HTS: 0.008
Cytochrome c; [4]
  cyt c: −0.494
[1]; [4]
  MTT: −0.604
Reactive oxygen species; [4]
  ROS: 1.157
C2C12 myotubes; [4]
  Viability: 0.293
[2]; [4]
  ΔΨm: 0.372
nuOXPHOS transcripts; [4]
  nucOX: −0.021
mtOXPHOS transcripts; [4]
  mitoOX: 0.143

## COC(=O)C[C@H]1C(C)(C)[C@@H](OC(C)=O)[C@@H]2CC3C4CC(=O)O[C@@H](c5ccoc5)[C@]4(C)CCC3[C@@]1(C)C2=O (stereo partly drawn) [dihydrofissinolide]
OXPHOS gene expression; [5]
  GE-HTS: −0.253
Cytochrome c; [5]
  cyt c: −0.122
[1]; [5]
  MTT: −1.189
Reactive oxygen species; [5]
  ROS: 1.029
C2C12 myotubes; [5]
  Viability: 0.139
[2]; [5]
  ΔΨm: 0.196
nuOXPHOS transcripts; [5]
  nucOX: −0.350
mtOXPHOS transcripts; [5]
  mitoOX: 0.041

## COC(=O)[C@@H]1OC(=O)C2OC23[C@@]1(C)CCC1[C@@]2(C)CCC(=O)C(C)(C)C2C[C@@H](OC(C)=O)[C@]13C (stereo partly drawn) [dihydrogedunic acid, methyl ester]
OXPHOS gene expression; [5]
  GE-HTS: 0.244
Cytochrome c; [5]
  cyt c: −0.443
[1]; [5]
  MTT: −1.062
Reactive oxygen species; [5]
  ROS: 0.411
C2C12 myotubes; [5]
  Viability: 0.103
[2]; [5]
  ΔΨm: −0.320
nuOXPHOS transcripts; [5]
  nucOX: 0.141
mtOXPHOS transcripts; [5]
  mitoOX: 0.438

## CC(=O)O[C@@H]1C[C@H]2C(C)(C)C(=O)CC[C@]2(C)[C@H]2CC[C@@]3(C)[C@H](c4ccoc4)OC(=O)[C@H]4O[C@]43[C@@]21C [dihydrogedunin]
OXPHOS gene expression; [5]
  GE-HTS: 0.575
Cytochrome c; [5]
  cyt c: 0.460
[1]; [5]
  MTT: −0.017
Reactive oxygen species; [5]
  ROS: −0.690
C2C12 myotubes; [5]
  Viability: 0.637
[2]; [5]
  ΔΨm: 1.079
nuOXPHOS transcripts; [5]
  nucOX: 0.613
mtOXPHOS transcripts; [5]
  mitoOX: 0.323

## COC(=O)[C@@H]1OC(=O)[C@H]2O[C@@]23[C@@]1(C)CCC1[C@@]2(C)CCC(=O)C(C)(C)C2C[C@@H](OC(C)=O)[C@]13C (stereo partly drawn) [dihydrogeduninic acid, methyl ester]
OXPHOS gene expression
  GE-HTS (composite Z-score): 0.739
Cytochrome c
  cyt c (composite Z-score): 0.117
[1]
  MTT (composite Z-score): −1.004
Reactive oxygen species
  ROS (composite Z-score): 0.820
C2C12 myotubes
  Viability (composite Z-score): 0.488
[2]
  ΔΨm (composite Z-score): −0.571
nuOXPHOS transcripts
  nucOX (composite Z-score): 0.881
mtOXPHOS transcripts
  mitoOX (composite Z-score): 0.289

## CCCCCC1C(=O)CCC1CC(=O)OC (stereo not drawn) [dihydrojasmonic acid, methyl ester]
OXPHOS gene expression; composite Z-score vs DMSO
  GE-HTS: 0.948
Cytochrome c; composite Z-score vs DMSO
  cyt c: −0.281
[1]; composite Z-score vs DMSO
  MTT: −0.452
Reactive oxygen species; composite Z-score vs DMSO
  ROS: −0.386
C2C12 myotubes; composite Z-score vs DMSO
  Viability: 0.971
[2]; composite Z-score vs DMSO
  ΔΨm: −0.204
nuOXPHOS transcripts; composite Z-score vs DMSO
  nucOX: 0.831
mtOXPHOS transcripts; composite Z-score vs DMSO
  mitoOX: 1.068

## CCCCCC1C(=O)CCC1CC(=O)O (stereo not drawn) [dihydrojasmonic acid]
OXPHOS gene expression; [3]
  GE-HTS: −0.313
Cytochrome c; [3]
  cyt c: −0.847
[1]; [3]
  MTT: −0.149
Reactive oxygen species; [3]
  ROS: 0.827
C2C12 myotubes; [3]
  Viability: −1.223
[2]; [3]
  ΔΨm: −0.294
nuOXPHOS transcripts; [3]
  nucOX: −0.168
mtOXPHOS transcripts; [3]
  mitoOX: −0.505
